For 41 compounds, IC50 results are on record in patent US9790221B2, “Heteroaryl compounds as IRAK inhibitors and uses thereof” (Merck Patent GmbH, priority 2014, dated 2017).

Structures can show the parent of a compound that is named as a salt. Bounds are passed on as bounds.

In general, IC50 refers to the midpoint of a concentration-inhibition curve. Low readings indicate inhibition by little substance, high ones a need for much substance.

One experiment concerns the target IRAK4 (Homo sapiens (Human), UniProt Q9NWZ3). Nature of the experiment: IRAK4 enzymatic assay. The experiment is classed as biochemical. As to the method:
IRAK4 is a human purified recombinant enzyme ([…]. IRAK4 hydrolyses ATP, autophosphorylates and phosphorylates a Serine/Threonine generic peptidic substrate (STK: 61ST1BLC from CisBio International based in Bagnols/Cèze FR).
Measurement of IRAK-4 inhibition was performed in streptavidin coated 384well FlashPlate (PerkinElmer #SMP410A). His-TEV-IRAK4 (20 ng/well), ATP (2 μM, [^33P]ATP 0.25 µCi/well), STK1-biotin peptide (300 nM) and compounds in DMSO (range of concentrations from 20 µM to 1 nM) or controls (2% DMSO) were incubated for 3 hours at 30° C. in assay buffer: Hepes pH7.0 50 mM, Fatty acid-free BSA 0.1%, Dithiothreitol DTT 2 mM, MgCl2 10 mM, EGTA 0.5 mM, Tween-20 0.01%, MnCl2 5 mM.
Kinase reaction was stopped by addition of EDTA. Supernatant was discarded, plates were washed three times with 150 mM NaCl and radioactivity was then measured in a Microbeta Trilux reader.

Experiment [1] addresses IRAK1 (His-TEV-IRAK1 (194-712)) (Homo sapiens (Human), UniProt P51617). Description: IRAK1 enzymatic assay. It counts as biochemical. On the procedure: IRAK1 is a human purified recombinant enzyme (His-TEV-IRAK1 (194-712)). In this assay, IRAK-1 hydrolyses ATP and autophosphorylates. Measurement of IRAK-1 inhibition was performed in streptavidin coated 384well FlashPlate (PerkinElmer #SMP410A).
His-TEV-IRAK-1 (15 ng/well), ATP (1 μM, [33P]ATP 0.25 μCi/well) and compounds in DMSO (range of concentrations from 20 µM to 1 nM) or controls (2% DMSO) were incubated for 3 hours at 30° C. in assay buffer: Hepes pH7.0 50 mM, Fatty acid-free BSA 0.1%, Dithiothreitol DTT 2 mM, MgCl2 10 mM, EGTA 0.5 mM, Triton-X-100 0.01%. Kinase reaction was stopped by addition of EDTA. Supernatant was discarded, plates were washed three times with 150 mM NaCl and radioactivity was then measured in a Microbeta Trilux reader.

Chain of IRAK1 (His-TEV-IRAK1 (194-712)) (P51617 194-712): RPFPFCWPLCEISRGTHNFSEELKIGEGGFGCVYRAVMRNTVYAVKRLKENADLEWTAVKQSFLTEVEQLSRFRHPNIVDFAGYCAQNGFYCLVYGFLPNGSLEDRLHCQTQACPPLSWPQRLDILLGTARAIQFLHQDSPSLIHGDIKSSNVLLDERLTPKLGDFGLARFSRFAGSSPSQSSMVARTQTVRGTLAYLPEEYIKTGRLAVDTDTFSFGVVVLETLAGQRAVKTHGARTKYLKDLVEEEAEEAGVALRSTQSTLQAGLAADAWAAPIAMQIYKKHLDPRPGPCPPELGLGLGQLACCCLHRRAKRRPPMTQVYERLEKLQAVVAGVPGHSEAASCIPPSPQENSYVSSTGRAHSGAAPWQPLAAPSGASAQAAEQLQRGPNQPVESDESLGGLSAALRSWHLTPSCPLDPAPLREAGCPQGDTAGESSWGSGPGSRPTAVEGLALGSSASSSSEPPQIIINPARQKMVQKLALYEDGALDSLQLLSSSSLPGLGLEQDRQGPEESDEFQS
Chain of IRAK4 (Q9NWZ3 whole entry): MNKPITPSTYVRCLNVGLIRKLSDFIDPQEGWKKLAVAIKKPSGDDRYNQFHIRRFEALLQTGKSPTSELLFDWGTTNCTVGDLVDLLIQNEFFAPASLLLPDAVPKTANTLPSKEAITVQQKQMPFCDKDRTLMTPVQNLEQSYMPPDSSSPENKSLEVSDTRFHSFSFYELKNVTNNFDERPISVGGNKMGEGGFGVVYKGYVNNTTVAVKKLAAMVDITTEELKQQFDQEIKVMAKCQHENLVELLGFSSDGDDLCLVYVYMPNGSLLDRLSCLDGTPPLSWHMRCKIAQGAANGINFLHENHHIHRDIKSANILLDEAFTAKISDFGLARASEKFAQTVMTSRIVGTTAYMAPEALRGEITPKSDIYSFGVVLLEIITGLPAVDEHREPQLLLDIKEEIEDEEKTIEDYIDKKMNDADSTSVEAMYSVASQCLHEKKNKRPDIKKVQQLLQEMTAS

For the compound `Cn1cc(-c2cccc(-c3ncc(-c4cnn(C)c4)c(N4CCCC(CNC(=O)OC(C)(C)C)C4)n3)c2)cn1` (stereo not drawn) [Example 5, (1-{5-(1-Methyl-1H-pyrazol-4-yl)-2-[3-(1-methyl-1H-pyrazol-4-yl)-phenyl]-pyrimidin-4-yl}-piperidin-3-ylmethyl)-carbamic Acid Tert-Butyl Ester], the 50% inhibitory concentration (IC50) on IRAK4 is greater than 5000 nM; in experiment [1], 1000 to 5000 nM.
On to `Cn1cc(-c2cccc(-c3ncc(-c4cnn(C)c4)c(NCC4(O)CCN(S(C)(=O)=O)CC4)n3)c2)cn1` [Example 249], for which the IC50 at IRAK4 was in the range of 100 to 1000 nM; in experiment [1] it was 1000 to 5000 nM.
In the same order, the values of `Cn1cc(-c2cccc(-c3ncc(-c4cnn(C)c4)c(NCCC4CCCCN4)n3)c2)cn1` (stereo not drawn) [Example 251] are 1000 to 5000 nM and greater than 5000 nM.
In the case of `Cn1cc(-c2cccc(-c3ncc(-c4cnn(C)c4)c(NCCC4CCCCN4S(C)(=O)=O)n3)c2)cn1` (stereo not drawn) [Example 259], the IC50 on IRAK4 is 100 to 1000 nM; in experiment [1] it was greater than 5000 nM.
For the compound `Cn1cc(-c2cccc(-c3ncc(-c4ccn(C)n4)c(N[C@H]4C[C@@H](S(C)(=O)=O)C4)n3)c2)cn1` [Example 79], the 50% inhibitory concentration (IC50) (against IRAK4; in experiment [1]) was 100 to 1000 nM throughout.
In the case of `Cn1cc(-c2cccc(-c3ncc(-c4ccn(C)n4)c(NCC4(C)CCC4)n3)c2)cn1` [Example 71], the IC50 (on IRAK4; in experiment [1]) was greater than 5000 nM throughout.
As to `Cn1cc(-c2cccc(-c3ncc(-c4ccn(C)n4)c(NCC4CCNCC4)n3)c2)cn1` [Example 12, {5-(1-Methyl-1H-pyrazol-3-yl)-2-[3-(1-methyl-1H-pyrazol-4-yl)-phenyl]-pyrimidin-4-yl}-piperidin-4-ylmethyl-amine], the IC50 (against IRAK4; in experiment [1]) was greater than 5000 nM each time.
As for `Cn1cc(-c2cccc(-c3ncc(-c4cnn(C)c4)c(N4CC(O)C4)n3)c2)cn1` [Example 226], the half-inhibitory concentration (IC50) is 100 to 1000 nM on IRAK4 and greater than 5000 nM in experiment [1].
As for `Cn1cc(-c2cccc(-c3ncc(-c4cnn(C)c4)c(NCC(=O)O)n3)c2)cn1` [Example 26, {5-(1-Methyl-1H-pyrazol-4-yl)-2-[3-(1-methyl-1H-pyrazol-4-yl)-phenyl]-pyrimidin-4-ylamino}-acetic Acid Formate], the concentration for half-maximal inhibition (IC50) (at IRAK4; in experiment [1]) was greater than 5000 nM throughout.
In the case of `CC(=O)N1CCC(F)(CNc2nc(-c3cccc(-c4cnn(C)c4)c3)ncc2-c2cnn(C)c2)CC1` [Example 237], the IC50 on IRAK4 was in the range of 100 to 1000 nM; in experiment [1], 1000 to 5000 nM.
In the same order, the values of `Cn1cc(-c2cccc(-c3ncc(-c4ccn(C)n4)c(NCCCN4CCOC4=O)n3)c2)cn1` [Example 67] are 100 to 1000 nM and greater than 5000 nM.
In the same order, the values of `Cn1cc(-c2cccc(-c3ncc(-c4cnn(C)c4)c(N4CCC(CCO)C4)n3)c2)cn1` (stereo not drawn) [Example 228] are 1000 to 5000 nM and greater than 5000 nM.
In the same order, the values of `CN(CC1CC(F)(F)C1)c1nc(-c2cccc(-c3cnn(C)c3)c2)ncc1-c1ccn(C)n1` [Example 142] are 1000 to 5000 nM and greater than 5000 nM.
As to `Cn1cc(-c2cccc(-c3ncc(-c4cnn(C)c4)c(NCC4(N)CCCCC4)n3)c2)cn1` [Example 252], the IC50 against IRAK4 is less than 100 nM; in experiment [1] it was 100 to 1000 nM.
Consider `Cn1cc(-c2cccc(-c3ncc(-c4cnn(C)c4)c(NC[C@@H]4CCCC[C@H]4O)n3)c2)cn1` [Example 224], for which the results for the IC50 (at IRAK4; in experiment [1]) were less than 100 nM and 1000 to 5000 nM, respectively.
In the same order, the values of `Cn1cc(-c2cccc(-c3ncc(-c4ccn(C)n4)c(NCCCN4CCOCC4)n3)c2)cn1` [Example 75] are greater than 5000 nM and greater than 5000 nM.
In the same order, the values of `Cn1cc(-c2cccc(-c3ncc(-c4ccn(C)n4)c(NC[C@H](O)CO)n3)c2)cn1` [Example 120] are 100 to 1000 nM and 100 to 1000 nM.
The corresponding values for `Cn1cc(-c2cccc(-c3ncc(-c4cnn(C)c4)c(NC4CC5(C4)CC(NS(C)(=O)=O)C5)n3)c2)cn1` (stereo not drawn) [Example 160] are less than 100 nM and 100 to 1000 nM.
Turning to `Cn1cc(-c2cccc(-c3ncc(-c4cnn(C)c4)c(N4CCC(CO)C4)n3)c2)cn1` (stereo not drawn) [Example 261], the concentration for half-maximal inhibition (IC50) against IRAK4 was in the range of 100 to 1000 nM; in experiment [1], 1000 to 5000 nM.
For the compound `Cn1cc(-c2cccc(-c3ncc(-c4cnn(C)c4)c(NC[C@H]4CC[C@@H](O)C4)n3)c2)cn1` (racemic) [Example 164], the half-inhibitory concentration (IC50) against IRAK4 was less than 100 nM; in experiment [1], 1000 to 5000 nM.
In the case of `Cn1cc(-c2cccc(-c3ncc(-c4cnn(C)c4)c(NCC4CCNC4)n3)c2)cn1` (stereo not drawn) [Example 145], the concentration for half-maximal inhibition (IC50) at IRAK4 is 100 to 1000 nM; in experiment [1], greater than 5000 nM.
In the same order, the values of `Cn1cc(-c2cccc(-c3ncc(-c4ccn(C)n4)c(NCC4CCCC(O)C4)n3)c2)cn1` (stereo not drawn) [Example 122] are 100 to 1000 nM and greater than 5000 nM.
In the same order, the values of `Cn1cc(-c2cccc(-c3ncc(-c4ccn(C)n4)c(NCC4(O)CCNCC4(C)C)n3)c2)cn1` (stereo not drawn) [Example 114] are 100 to 1000 nM and 1000 to 5000 nM.
With `CC(=O)N1CCC(O)(CNc2nc(-c3cccc(-c4cnn(C)c4)c3)ncc2-c2cnn(C)c2)CC1` [Example 277], the concentration for half-maximal inhibition (IC50) on IRAK4 was 100 to 1000 nM; in experiment [1], greater than 5000 nM.
As for `Cn1cc(-c2cccc(-c3ncc(-c4cnn(C)c4)c(NCC4CCN(S(C)(=O)=O)C4)n3)c2)cn1` (stereo not drawn) [Example 158], the half-inhibitory concentration (IC50) was less than 100 nM at IRAK4 and 100 to 1000 nM in experiment [1].
As for `CC(=O)N1CCC(CNc2nc(-c3cccc(-c4cnn(C)c4)c3)ncc2-c2cnn(C)c2)C(F)C1` (stereo not drawn) [Example 235], the IC50 at IRAK4 lay in the range of 100 to 1000 nM; in experiment [1], 1000 to 5000 nM.
The corresponding values for `Cn1cc(-c2cccc(-c3ncc(-c4cnn(C)c4)c(N4CCC(NS(C)(=O)=O)CC4)n3)c2)cn1` [Example 250] are 100 to 1000 nM and 1000 to 5000 nM.
As to `Cn1cc(-c2cccc(-c3ncc(-c4cnn(C)c4)c(NC4CCC(CNS(C)(=O)=O)CC4)n3)c2)cn1` (stereo not drawn) [Example 201], the 50% inhibitory concentration (IC50) at IRAK4 is less than 100 nM; in experiment [1], 1000 to 5000 nM.
In the same order, the values of `Cn1cc(-c2cccc(-c3ncc(-c4cnn(C)c4)c(N[C@H]4C[C@H](N)C4)n3)c2)cn1` [Example 197] are 100 to 1000 nM and greater than 5000 nM.
Take `CC(=O)N[C@H]1C[C@H](Nc2nc(-c3cccc(-c4cnn(C)c4)c3)ncc2-c2cnn(C)c2)C1` [Example 202]: the 50% inhibitory concentration (IC50) on IRAK4 was in the range of 100 to 1000 nM; in experiment [1], 1000 to 5000 nM.
In the same order, the values of `Cn1cc(-c2cccc(-c3ncc(-c4ccn(C)n4)c(NC4CCC(=O)NC4)n3)c2)cn1` (stereo not drawn) [Example 102] are 100 to 1000 nM and 1000 to 5000 nM.
The corresponding values for `Cn1cc(-c2cccc(-c3ncc(-c4ccn(C)n4)c(NCCN4CCOCC4)n3)c2)cn1` [Example 69] are 100 to 1000 nM and greater than 5000 nM.
The corresponding values for `Cn1cc(-c2cccc(-c3ncc(-c4cnn(C)c4)c(NC4CC5CCC4N5)n3)c2)cn1` (stereo not drawn) [Example 193] are 100 to 1000 nM and greater than 5000 nM.
With `Cn1cc(-c2cccc(-c3ncc(-c4cnn(C)c4)c(NCCN)n3)c2)cn1` [Example 34], the values for the half-inhibitory concentration (IC50) (against IRAK4; in experiment [1]) were 1000 to 5000 nM and greater than 5000 nM, respectively.
In the same order, the values of `Cn1cc(-c2cccc(-c3cc(C(F)(F)F)c(-c4cnn(C5CCOCC5)c4)cn3)c2)cn1` [Example 23, 2-[3-(1-Methyl-1H-pyrazol-4-yl)-phenyl]-5-[1-(tetrahydro-pyran-4-yl)-1H-pyrazol-4-yl]-4-trifluoromethyl-pyridine] are 1000 to 5000 nM and greater than 5000 nM.
In the same order, the values of `Cn1cc(-c2cccc(-c3ncc(-c4cnn(C)c4)c(NC4CCC(=O)NC4)n3)c2)cn1` (stereo not drawn) [Example 103] are less than 100 nM and 1000 to 5000 nM.
Take `Cn1cc(-c2cccc(-c3ncc(-c4cnn(C)c4)c(NCC(N)=O)n3)c2)cn1` [Example 25, 2-{5-(1-Methyl-1H-pyrazol-4-yl)-2-[3-(1-methyl-1H-pyrazol-4-yl)-phenyl]-pyrimidin-4-ylamino}-acetamide formate]: the IC50 was 1000 to 5000 nM against IRAK4 and greater than 5000 nM in experiment [1].
In the same order, the values of `Cn1cc(-c2cccc(-c3ncc(-c4cnn(C)c4)c(N4CC5CNCC5C4)n3)c2)cn1` (stereo not drawn) [Example 191] are 100 to 1000 nM and greater than 5000 nM.
The corresponding values for `Cn1cc(-c2cccc(-c3ncc(-c4cnn(C)c4)c(NCCO)n3)c2)cn1` [Example 96] are less than 100 nM and 1000 to 5000 nM.
In the same order, the values of `Cn1cc(-c2cccc(-c3ncc(-c4cnn(C)c4)c(NC[C@@H]4CCC(=O)N4)n3)c2)cn1` [Example 61] are 100 to 1000 nM and greater than 5000 nM.
Regarding `Cn1cc(-c2cccc(-c3ncc(-c4cnn(C)c4)c(NCC4CCCN(C(=O)OC(C)(C)C)C4)n3)c2)cn1` (stereo not drawn) [Example 3, 3-({5-(1-Methyl-1H-pyrazol-4-yl)-2-[3-(1-methyl-1H-pyrazol-4-yl)-phenyl]-pyrimidin-4-ylamino}-methyl)-piperidine-1-carboxylic Acid Tert-Butyl Ester], in experiment [1], the IC50 fell in the range of 1000 to 5000 nM.
